By inhibition is commonly meant the relative decrease from the control value, in per cent.

The results in this text go back to patent US20240309043A1, “THERAPEUTICALLY ACTIVE STEROIDAL DERIVATIVES” (Organon R&D Finland Ltd., priority 2017, published 2024).

What all share (type): biochemical
Experiment [1] concerns the target T1, recombinant human 17β-HSD1 (Homo sapiens, UniProt P14061).
T1 construct: made in house; host or cells: Sd9 (Sf9) insect cells, baculovirus (Bac to Bac Expression System)
T1 sequence (P14061 1-328): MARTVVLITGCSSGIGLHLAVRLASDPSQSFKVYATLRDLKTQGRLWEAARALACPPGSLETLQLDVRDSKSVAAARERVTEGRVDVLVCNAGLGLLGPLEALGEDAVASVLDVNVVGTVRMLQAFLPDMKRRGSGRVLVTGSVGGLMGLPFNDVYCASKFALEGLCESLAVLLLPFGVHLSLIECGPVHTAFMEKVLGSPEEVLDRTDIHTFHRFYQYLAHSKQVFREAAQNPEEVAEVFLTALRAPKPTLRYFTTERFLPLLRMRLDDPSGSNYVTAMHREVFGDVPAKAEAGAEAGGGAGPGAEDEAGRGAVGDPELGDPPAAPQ
The experiment is described as follows: Inhibition of recombinant human 17β-HSD1. As to conditions: inhibitor 100 nM; 30 nM estrone, 1 mM NADPH, 30 min RT. In a few lines: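 Microsomes from Sf9 cells expressing human 17β-HSD1 (1 μg/ml) were incubated for 30 min at RT in 20 mM KH2PO4 pH 7.4 with 30 nM ³H-estrone, 1 mM NADPH and inhibitor at 1 μM or 0.1 μM (1% DMSO). Estrone-to-estradiol conversion was measured by radio-HPLC after TCA stop, and % inhibition was taken as 100 − % conversion.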

The target of experiment [2] is T2, recombinant human 17β-HSD2 (Homo sapiens, UniProt P37059).
T2 construct: made in house; host or cells: Sd9 (Sf9) insect cells, baculovirus (Bac to Bac Expression System)
T2 sequence (P37059 1-387): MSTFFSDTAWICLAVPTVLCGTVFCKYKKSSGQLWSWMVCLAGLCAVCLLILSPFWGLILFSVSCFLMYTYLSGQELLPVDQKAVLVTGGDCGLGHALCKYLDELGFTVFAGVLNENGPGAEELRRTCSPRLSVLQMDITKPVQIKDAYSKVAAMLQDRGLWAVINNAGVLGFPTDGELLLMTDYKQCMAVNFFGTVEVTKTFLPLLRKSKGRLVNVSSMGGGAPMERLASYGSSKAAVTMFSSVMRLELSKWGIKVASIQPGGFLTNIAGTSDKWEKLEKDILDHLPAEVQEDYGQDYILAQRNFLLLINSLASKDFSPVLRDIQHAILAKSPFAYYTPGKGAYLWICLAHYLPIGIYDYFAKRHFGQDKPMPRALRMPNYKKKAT
The experiment can be described thus: Inhibition of recombinant human 17β-HSD2. As to conditions: inhibitor 1 μM; 50 nM estradiol, 1 mM NADH, 30 min RT. In outline:
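Sf9 baculovirus-expressed enzyme membrane extract (4 μg/ml) incubated 30 min at RT in 20 mM KH2PO4 pH 8.5 with 50 nM estradiol (³H-tracer) and 1 mM NADH, inhibitor at 1 μM or 0.1 μM, 1% DMSO. TCA-stopped; estradiol-to-estrone conversion by radio-HPLC, % inhibition = 100 − % conversion.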

For experiment [3], the system named is HSD1 enzyme that is expressed in rabbit placenta tissue. The experiment can be described thus: Inhibition of E1 to E2 conversion in rabbit placenta tissue homogenate. As to conditions: inhibitor 100 nM, 30 nM estrone, 30 min.

Take `CN(C(=O)CC[C@@H]1C/C(=N\O)[C@@]2(C)CCC3c4ccccc4CCC3C12)C1CCOCC1` (stereo partly drawn) [Compound 80, 3-((13S,15R,E)-17-(hydroxyimino)-13-methyl-7,8,9,11,12,13,14,15,16,17-decahydro-6H-cyclopenta[a]phenanthren-15-yl)-N-methyl-N-(tetrahydro-2H-pyran-4-yl)propanamide]: the inhibition at 0.1 µM in experiment [1] amounted to 32%. Further, the inhibition at 1 µM in experiment [2] stood at 4%. Besides, in experiment [3], the “Rabbit placenta inhibition % @100 nM” value is recorded as 3%.

For `CN(C)C(=O)c1ccc(NC(=O)CC[C@@H]2C/C(=N\O)[C@@]3(C)CCC4c5ccc(Cl)cc5CCC4C23)nc1` (stereo partly drawn) [Compound 172, 6-(3-((13S,15R,E)-3-chloro-17-(hydroxyimino)-13-methyl-7,8,9,11,12,13,14,15,16,17-decahydro-6H-cyclopenta[a]phenanthren-15-yl)propanamido)-N,N-dimethylnicotinamide], in experiment [1], the inhibition at 0.1 µM was found to be 45%. For the same compound, in experiment [2], the inhibition at 1 µM stood at 9%. The “Rabbit placenta inhibition % @100 nM” value in experiment [3] stood at 9%.

Turning to `C[C@]12CCC3c4ccc(Cl)cc4CCC3C1[C@H](CCC(=O)Nc1ncccc1F)C/C2=N\O` (stereo partly drawn) [Compound 62, 3-((13S,15R,E)-3-chloro-17-(hydroxyimino)-13-methyl-7,8,9,11,12,13,14,15,16,17-decahydro-6H-cyclopenta[a]phenanthren-15-yl)-N-(3-fluoropyridin-2-yl)propanamide], the inhibition at 0.1 µM in experiment [1] was 45%. Besides, the “HSD2 inhibition % @1 μM” value in experiment [2] is on record as −8%. Moreover, the “Rabbit placenta inhibition % @100 nM” value in experiment [3] worked out at 3%.

On to `COc1ccc(NC(=O)CC[C@@H]2C/C(=N\O)[C@@]3(C)CCC4c5ccc(Cl)cc5CCC4C23)nc1` (stereo partly drawn) [Compound 66, 3-((13S,15R,E)-3-chloro-17-(hydroxyimino)-13-methyl-7,8,9,11,12,13,14,15,16,17-decahydro-6H-cyclopenta[a]phenanthren-15-yl)-N-(5-methoxypyridin-2-yl)propanamide], for which the inhibition at 0.1 µM in experiment [1] came to 72%. For the same compound, the inhibition at 1 µM in experiment [2] was 23%. The “Rabbit placenta inhibition % @100 nM” value in experiment [3] was 14%.

Take `C[C@]12CCC3c4ccc(F)cc4CCC3C1[C@H](CCC(=O)Nc1ncccc1F)C/C2=N/O` (stereo partly drawn) [Compound 150b, 3-((13S,15R,Z)-3-fluoro-17-(hydroxyimino)-13-methyl-7,8,9,11,12,13,14,15,16,17-decahydro-6H-cyclopenta[a]phenanthren-15-yl)-N-(3-fluoropyridin-2-yl)propanamide]: the inhibition at 0.1 µM in experiment [1] is 30%. Also, the inhibition at 1 µM in experiment [2] amounted to 6%. Besides, the “Rabbit placenta inhibition % @100 nM” value in experiment [3] is listed as 3%.

In the case of `COc1ccc(NC(=O)CC[C@@H]2C/C(=N\O)[C@@]3(C)CCC4c5ccc(F)cc5CCC4C23)nn1` (stereo partly drawn) [Compound 30, 3-((13S,15R,E)-3-fluoro-17-(hydroxyimino)-13-methyl-7,8,9,11,12,13,14,15,16,17-decahydro-6H-cyclopenta[a]phenanthren-15-yl)-N-(6-methoxypyridazin-3-yl)propanamide], the inhibition at 0.1 µM in experiment [1] worked out at 40%. Moreover, the inhibition at 1 µM in experiment [2] was 3%. The “Rabbit placenta inhibition % @100 nM” value in experiment [3] was determined as 79%.

With `Cc1ccnc(NC(=O)CC[C@@H]2C/C(=N\O)[C@@]3(C)CCC4c5cccc(F)c5CCC4C23)c1` (stereo partly drawn) [Compound 130, 3-((13S,15R,E)-4-fluoro-17-(hydroxyimino)-13-methyl-7,8,9,11,12,13,14,15,16,17-decahydro-6H-cyclopenta[a]phenanthren-15-yl)-N-(4-methylpyridin-2-yl)propanamide], the inhibition at 0.1 µM in experiment [1] was 92%. The inhibition at 1 µM in experiment [2] is 14%. Besides, in experiment [3], the “Rabbit placenta inhibition % @100 nM” value came to 40%.

As to `C[C@]12CCC3c4ccccc4CCC3C1[C@H](CCC(=O)Nc1ccccn1)C/C2=N\O` (stereo partly drawn) [Compound 104, 3-((13S,15R,E)-17-(hydroxyimino)-13-methyl-7,8,9,11,12,13,14,15,16,17-decahydro-6H-cyclopenta[a]phenanthren-15-yl)-N-(pyridin-2-yl)propanamide], the inhibition at 0.1 µM in experiment [1] worked out at 64%. Besides, the inhibition at 1 µM in experiment [2] is -13%. Also, the “Rabbit placenta inhibition % @100 nM” value in experiment [3] was 9%.

As for `C[C@]12CCC3c4ccc(F)cc4CCC3C1[C@H](CCC(=O)Nc1ncccc1F)C/C2=N\O` (stereo partly drawn) [Compound 150a, 3-((13S,15R,E)-3-fluoro-17-(hydroxyimino)-13-methyl-7,8,9,11,12,13,14,15,16,17-decahydro-6H-cyclopenta[a]phenanthren-15-yl)-N-(3-fluoropyridin-2-yl)propanamide], the inhibition at 0.1 µM in experiment [1] was 74%. In experiment [2], the inhibition at 1 µM is 0%. Moreover, in experiment [3], the “Rabbit placenta inhibition % @100 nM” value worked out at 10%.

Regarding `C[C@]12CCC3c4ccc(Cl)cc4CCC3C1[C@H](CCC(=O)Nc1ccc(F)cn1)C/C2=N\O` (stereo partly drawn) [Compound 58, 3-((13S,15R,E)-3-chloro-17-(hydroxyimino)-13-methyl-7,8,9,11,12,13,14,15,16,17-decahydro-6H-cyclopenta[a]phenanthren-15-yl)-N-(5-fluoropyridin-2-yl)propanamide], the inhibition at 0.1 µM in experiment [1] was 60%. Moreover, the inhibition at 1 µM in experiment [2] is 18%. In addition, in experiment [3], the “Rabbit placenta inhibition % @100 nM” value is listed as 1%.

Take `C[C@]12CCC3c4ccc(Cl)cc4CCC3C1[C@H](CCC(=O)Nc1ncccc1F)C/C2=N\O` (stereo partly drawn) [Compound 162, 3-((13S,15R,E)-3-chloro-17-(hydroxyimino)-13-methyl-7,8,9,11,12,13,14,15,16,17-decahydro-6H-cyclopenta[a]phenanthren-15-yl)-N-(3-fluoropyridin-2-yl)propanamide]: the “HSD1 inhibition % @100 nM” value in experiment [1] came out at 44%. Besides, the “HSD2 inhibition % @1 μM” value in experiment [2] is given as 10%. Moreover, in experiment [3], the “Rabbit placenta inhibition % @100 nM” value was 7%.

As to `Cc1cnc(NC(=O)CC[C@@H]2C/C(=N\O)[C@@]3(C)CCC4c5ccc(Cl)cc5CCC4C23)o1` (stereo partly drawn) [Compound 64, 3-((13S,15R,E)-3-chloro-17-(hydroxyimino)-13-methyl-7,8,9,11,12,13,14,15,16,17-decahydro-6H-cyclopenta[a]phenanthren-15-yl)-N-(5-methyloxazol-2-yl)propanamide], the inhibition at 0.1 µM in experiment [1] turned out to be 26%. In addition, the inhibition at 1 µM in experiment [2] came out at 0%. Moreover, in experiment [3], the “Rabbit placenta inhibition % @100 nM” value worked out at 5%.

Take `C[C@]12CCC3c4cccc(F)c4CCC3C1[C@H](CCC(=O)NC1CCCCC1)C/C2=N\O` (stereo partly drawn) [Compound 124, N-Cyclohexyl-3-((13S,15R,E)-4-fluoro-17-(hydroxyimino)-13-methyl-7,8,9,11,12,13,14,15,16,17-decahydro-6H-cyclopenta[a]phenanthren-15-yl)propanamide]: the inhibition at 0.1 µM in experiment [1] stood at 86%. In addition, the inhibition at 1 µM in experiment [2] was 4%. Besides, in experiment [3], the “Rabbit placenta inhibition % @100 nM” value came out at 4%.

In the case of `C[C@]12CCC3c4cccc(F)c4CCC3C1[C@H](CCC(=O)Nc1cccc(F)n1)C/C2=N\O` (stereo partly drawn) [Compound 144, 3-((13S,15R,E)-4-fluoro-17-(hydroxyimino)-13-methyl-7,8,9,11,12,13,14,15,16,17-decahydro-6H-cyclopenta[a]phenanthren-15-yl)-N-(6-fluoropyridin-2-yl)propanamide], the inhibition at 0.1 µM in experiment [1] amounted to 74%. In addition, the inhibition at 1 µM in experiment [2] was 10%. The “Rabbit placenta inhibition % @100 nM” value in experiment [3] is 24%.

As to `C[C@]12CCC3c4ccc(F)cc4CCC3C1[C@H](CCC(=O)Nc1ccc(F)cn1)C/C2=N\O` (stereo partly drawn) [Compound 26, 3-((13S,15R,E)-3-fluoro-17-(hydroxyimino)-13-methyl-7,8,9,11,12,13,14,15,16,17-decahydro-6H-cyclopenta[a]phenanthren-15-yl)-N-(5-fluoropyridin-2-yl)propanamide], in experiment [1], the inhibition at 0.1 µM was determined as 49%. For the same compound, in experiment [2], the inhibition at 1 µM was found to be 8%. For the same compound, the “Rabbit placenta inhibition % @100 nM” value in experiment [3] came out at 10%.

Regarding `C[C@]12CCC3c4ccccc4CCC3C1[C@H](CCC(=O)Nc1ncc(F)cc1F)C/C2=N\O` (stereo partly drawn) [Compound 166, N-(3,5-difluoropyridin-2-yl)-3-((13S,15R,E)-17-(hydroxyimino)-13-methyl-7,8,9,11,12,13,14,15,16,17-decahydro-6H-cyclopenta[a]phenanthren-15-yl)propanamide], the inhibition at 0.1 µM in experiment [1] amounted to 56%. In addition, the inhibition at 1 µM in experiment [2] was determined as 7%. Further, the “Rabbit placenta inhibition % @100 nM” value in experiment [3] was found to be 3%.
